Results reported in patent publication US8778966B2, “Quinolinone derivatives as PARP and tank inhibitors” (Janssen Pharmaceutica, NV, priority 2007, dated 2014).
One block for each compound: values may come before it.

How the values were obtained:
Human PARP-1 enzyme = biological target: T1, Human PARP-1 enzyme (Homo sapiens, UniProt P09874); experiment: In vitro Scintillation Proximity Assay (SPA) for PARP-1 inhibitory activity; type: biochemical; conditions: read-out: in vitro SPA assay PARP-1 pIC50 (converted)
T1 construct: purchased Trevigen
Outline: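 SPA assay: nicked-DNA-activated PARP-1 (0.1–0.2 μg/ml) ADP-ribosylates biotinylated histones (2 μg/ml) using [3H]-NAD+, 20 min at RT in Tris pH 8/DTT/MgCl2, stopped with 2 mM NAD+. Blank-subtracted cpm expressed as % control; IC50 by linear interpolation, reported as pIC50 (10−5 to 3×10−9 M tested).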

PC3 cells = experiment: EB1 Comet (microtubule disruption) assay; type: cell-based, human; conditions: Homo sapiens, PC-3, 1 h, 1 hour treatment, read-out: EB1 pLAC (converted)
Outline: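 Readout is loss of Eb1 plus-end foci, scored by immunofluorescence microscopy, in PC3 cells after 1 h compound treatment at 37 °C with 0.6% final DMSO. LAC is defined as the lowest concentration leaving at least 50% of cells without Eb1 foci.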

T1 sequence (P09874 whole entry): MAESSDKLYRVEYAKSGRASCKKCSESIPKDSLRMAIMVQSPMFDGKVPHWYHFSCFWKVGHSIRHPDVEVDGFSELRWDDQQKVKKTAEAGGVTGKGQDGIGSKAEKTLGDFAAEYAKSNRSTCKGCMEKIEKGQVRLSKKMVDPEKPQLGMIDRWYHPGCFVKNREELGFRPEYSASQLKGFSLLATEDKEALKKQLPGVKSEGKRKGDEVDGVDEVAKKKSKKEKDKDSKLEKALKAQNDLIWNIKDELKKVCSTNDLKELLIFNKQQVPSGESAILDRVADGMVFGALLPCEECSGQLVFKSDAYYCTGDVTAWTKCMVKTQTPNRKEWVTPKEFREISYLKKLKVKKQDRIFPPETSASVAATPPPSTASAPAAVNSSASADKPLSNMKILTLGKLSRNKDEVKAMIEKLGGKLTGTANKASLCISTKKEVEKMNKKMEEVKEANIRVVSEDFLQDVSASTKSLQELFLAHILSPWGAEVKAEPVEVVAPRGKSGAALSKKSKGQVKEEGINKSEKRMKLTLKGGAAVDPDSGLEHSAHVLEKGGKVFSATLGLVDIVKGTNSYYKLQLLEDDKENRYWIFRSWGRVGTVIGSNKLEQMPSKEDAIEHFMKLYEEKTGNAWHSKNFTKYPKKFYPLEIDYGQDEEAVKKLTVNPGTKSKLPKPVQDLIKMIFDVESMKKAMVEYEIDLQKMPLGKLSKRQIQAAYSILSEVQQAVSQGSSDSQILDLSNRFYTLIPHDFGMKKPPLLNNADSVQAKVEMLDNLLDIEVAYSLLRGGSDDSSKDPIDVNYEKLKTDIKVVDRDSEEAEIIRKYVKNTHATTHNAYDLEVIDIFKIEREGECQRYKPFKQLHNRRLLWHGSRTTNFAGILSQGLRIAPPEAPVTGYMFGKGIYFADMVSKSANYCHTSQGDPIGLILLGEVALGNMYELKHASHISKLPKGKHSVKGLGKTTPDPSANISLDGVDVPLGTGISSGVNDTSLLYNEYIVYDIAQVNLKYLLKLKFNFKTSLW

Structure (SMILES): Cc1cc2ccc(C(C)(C#N)Cc3cc4ccccc4[nH]3)cc2[nH]c1=O (stereo not shown) [Compound 234]
IC50 (Human PARP-1 enzyme): 251 nM
minimal effective concentration (PC3 cells): > 10 µM

Structure (SMILES): CCc1cc2ccc(C(C)(C#N)Cc3ccc(F)c(C#N)c3)cc2[nH]c1=O (stereo not shown) [Compound 267]
IC50 (Human PARP-1 enzyme): 79.4 nM
minimal effective concentration (PC3 cells): 0.1 µM

Structure (SMILES): CCc1cc2ccc(C(C)(C#N)CCOc3ccccc3F)cc2[nH]c1=O (stereo not shown) [Compound 278]
IC50 (Human PARP-1 enzyme): 100 nM
minimal effective concentration (PC3 cells): 1 µM

More lines, main results first:

IC50 (Human PARP-1 enzyme): 79.4 nM
Structure (SMILES): CCc1cc2ccc(C(C)(C#N)CCOc3ccc4c(c3)OCO4)cc2[nH]c1=O (stereo not shown) [Compound 279]
minimal effective concentration (PC3 cells): 1 µM

IC50 (Human PARP-1 enzyme): 79.4 nM
Structure (SMILES): CCc1cc2ccc(C(C)(C#N)Cc3cc(OC)cc(OC)c3)cc2[nH]c1=O (stereo not shown) [Compound 332]
minimal effective concentration (PC3 cells): 0.316 µM
